Data on one compound can be found in publication PMC6385481 (Chemical Science, 2018).

Structures are written as SMILES. Entries after “also recorded” stand apart in the source; their conditions may differ. A value given as a limit tells only on which side of the number the result lay.

In one test the target is TAP (Homo sapiens, UniProt Q03518+Q03519). Put plainly: TAP-dependent peptide transport of NST-F in Raji microsomes. The test is classed as biochemical. The note with it: read-out: inhibition of TAP-dependent peptide translocation before illumination.
In test [1] the target is T1, TAP (core-TAP1mVenus/core-TAP2mCerulean containing crude membranes from Pichia pastoris) (Homo sapiens, UniProt Q03518+Q03519).
T1 sequence (Q03518 167-748 limits assumed): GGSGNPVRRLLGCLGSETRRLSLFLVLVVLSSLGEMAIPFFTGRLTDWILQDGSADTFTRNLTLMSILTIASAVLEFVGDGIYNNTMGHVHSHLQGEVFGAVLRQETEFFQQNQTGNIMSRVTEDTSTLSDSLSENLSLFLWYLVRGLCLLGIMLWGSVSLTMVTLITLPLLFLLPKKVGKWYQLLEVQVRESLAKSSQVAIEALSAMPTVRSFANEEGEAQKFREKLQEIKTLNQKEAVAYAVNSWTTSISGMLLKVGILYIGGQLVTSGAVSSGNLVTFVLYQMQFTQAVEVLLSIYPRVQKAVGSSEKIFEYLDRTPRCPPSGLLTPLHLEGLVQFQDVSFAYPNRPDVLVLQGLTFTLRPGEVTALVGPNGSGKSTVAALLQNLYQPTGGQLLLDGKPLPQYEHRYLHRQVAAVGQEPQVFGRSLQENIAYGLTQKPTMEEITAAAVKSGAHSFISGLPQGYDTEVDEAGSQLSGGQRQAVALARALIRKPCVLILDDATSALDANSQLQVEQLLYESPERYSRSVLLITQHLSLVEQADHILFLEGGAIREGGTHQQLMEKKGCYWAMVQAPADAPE
T1 sequence (Q03519 125-686 limits assumed): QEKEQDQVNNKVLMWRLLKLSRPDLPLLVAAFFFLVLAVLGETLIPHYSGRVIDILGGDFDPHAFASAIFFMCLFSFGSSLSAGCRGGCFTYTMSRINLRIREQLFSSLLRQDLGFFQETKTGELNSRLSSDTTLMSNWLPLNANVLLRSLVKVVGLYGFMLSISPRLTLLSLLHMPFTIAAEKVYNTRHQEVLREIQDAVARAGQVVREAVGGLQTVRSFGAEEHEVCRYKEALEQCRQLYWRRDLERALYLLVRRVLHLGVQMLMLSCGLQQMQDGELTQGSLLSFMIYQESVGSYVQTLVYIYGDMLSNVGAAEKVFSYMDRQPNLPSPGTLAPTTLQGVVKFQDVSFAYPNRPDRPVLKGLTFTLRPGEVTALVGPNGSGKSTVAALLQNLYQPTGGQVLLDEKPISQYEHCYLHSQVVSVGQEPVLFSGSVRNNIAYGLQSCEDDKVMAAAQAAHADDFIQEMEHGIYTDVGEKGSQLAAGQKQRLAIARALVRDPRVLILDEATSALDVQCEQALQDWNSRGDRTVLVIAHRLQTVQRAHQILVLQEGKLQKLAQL
Put plainly: Filter-based peptide competition assay. The test is classed as binding. The note with it: 100 μM inhibitor; illumination at 365 nm.

Sequence of TAP (Q03518 whole entry): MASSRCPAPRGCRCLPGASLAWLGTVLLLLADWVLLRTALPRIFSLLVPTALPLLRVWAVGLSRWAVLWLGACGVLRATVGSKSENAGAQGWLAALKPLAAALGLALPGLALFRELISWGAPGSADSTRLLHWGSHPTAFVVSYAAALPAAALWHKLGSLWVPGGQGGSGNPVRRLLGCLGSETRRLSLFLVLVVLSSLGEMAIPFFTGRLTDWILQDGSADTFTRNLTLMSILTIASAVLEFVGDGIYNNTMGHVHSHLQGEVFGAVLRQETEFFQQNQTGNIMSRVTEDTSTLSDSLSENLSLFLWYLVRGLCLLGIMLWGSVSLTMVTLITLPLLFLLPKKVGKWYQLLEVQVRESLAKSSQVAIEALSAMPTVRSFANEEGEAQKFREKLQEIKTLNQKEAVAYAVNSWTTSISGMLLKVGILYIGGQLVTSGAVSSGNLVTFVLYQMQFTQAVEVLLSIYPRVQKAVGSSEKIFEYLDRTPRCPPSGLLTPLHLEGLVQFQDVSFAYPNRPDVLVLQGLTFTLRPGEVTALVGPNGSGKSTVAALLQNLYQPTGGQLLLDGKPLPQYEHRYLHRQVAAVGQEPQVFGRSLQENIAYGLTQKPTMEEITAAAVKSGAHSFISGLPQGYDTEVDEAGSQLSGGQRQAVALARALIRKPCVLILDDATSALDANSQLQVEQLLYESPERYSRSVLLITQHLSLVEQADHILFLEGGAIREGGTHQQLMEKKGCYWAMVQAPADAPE
Sequence of TAP (Q03519 whole entry): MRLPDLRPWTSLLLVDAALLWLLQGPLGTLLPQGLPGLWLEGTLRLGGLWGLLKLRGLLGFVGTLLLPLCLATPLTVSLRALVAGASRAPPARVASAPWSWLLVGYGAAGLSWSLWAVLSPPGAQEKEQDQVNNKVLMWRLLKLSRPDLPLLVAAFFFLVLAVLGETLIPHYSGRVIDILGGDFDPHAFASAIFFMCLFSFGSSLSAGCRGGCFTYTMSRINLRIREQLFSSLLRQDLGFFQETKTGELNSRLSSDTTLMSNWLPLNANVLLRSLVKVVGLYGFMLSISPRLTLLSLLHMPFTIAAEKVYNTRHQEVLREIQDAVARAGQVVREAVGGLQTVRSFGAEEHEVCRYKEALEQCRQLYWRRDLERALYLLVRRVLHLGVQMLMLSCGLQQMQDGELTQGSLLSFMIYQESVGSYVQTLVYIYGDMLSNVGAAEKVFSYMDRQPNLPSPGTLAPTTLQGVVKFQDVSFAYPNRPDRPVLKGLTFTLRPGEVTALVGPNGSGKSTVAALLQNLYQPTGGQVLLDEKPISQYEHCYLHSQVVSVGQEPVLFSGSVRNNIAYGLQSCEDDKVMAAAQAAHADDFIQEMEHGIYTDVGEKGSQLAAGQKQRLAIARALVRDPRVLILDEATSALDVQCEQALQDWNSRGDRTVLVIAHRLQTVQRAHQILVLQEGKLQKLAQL
Sequence of TAP (O15533 21-448 partner): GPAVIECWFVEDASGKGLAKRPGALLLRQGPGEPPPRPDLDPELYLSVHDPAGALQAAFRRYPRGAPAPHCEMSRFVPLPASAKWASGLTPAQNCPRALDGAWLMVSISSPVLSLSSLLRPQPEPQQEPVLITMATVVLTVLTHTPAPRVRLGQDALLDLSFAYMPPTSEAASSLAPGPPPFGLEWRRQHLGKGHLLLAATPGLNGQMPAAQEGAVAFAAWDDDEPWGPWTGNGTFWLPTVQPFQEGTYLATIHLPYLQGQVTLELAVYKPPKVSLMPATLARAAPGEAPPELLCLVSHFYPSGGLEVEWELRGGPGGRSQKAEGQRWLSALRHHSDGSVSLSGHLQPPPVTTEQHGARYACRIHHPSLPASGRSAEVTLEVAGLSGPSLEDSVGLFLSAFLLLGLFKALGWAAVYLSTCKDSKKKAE
Sequence of TAP (P30101 25-505 partner): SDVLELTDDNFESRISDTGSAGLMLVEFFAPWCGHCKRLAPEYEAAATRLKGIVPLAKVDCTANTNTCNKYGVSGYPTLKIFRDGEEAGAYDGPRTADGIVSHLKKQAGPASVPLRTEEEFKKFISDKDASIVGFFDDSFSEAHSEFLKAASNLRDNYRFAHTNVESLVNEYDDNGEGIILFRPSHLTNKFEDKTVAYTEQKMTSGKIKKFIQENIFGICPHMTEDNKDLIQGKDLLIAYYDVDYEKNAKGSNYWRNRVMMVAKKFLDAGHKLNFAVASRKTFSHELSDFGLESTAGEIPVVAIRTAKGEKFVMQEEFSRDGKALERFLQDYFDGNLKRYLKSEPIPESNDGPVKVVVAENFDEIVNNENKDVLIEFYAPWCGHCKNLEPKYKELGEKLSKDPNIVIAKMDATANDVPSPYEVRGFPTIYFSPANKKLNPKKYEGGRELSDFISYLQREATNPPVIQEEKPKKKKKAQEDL

Usually inhibition stands for the drop in the measured response relative to a control, in per cent. Take `CC[C@H](C)[C@H](NC(=O)[C@H](CCC(=O)O)NC(=O)[C@H](CC(=O)O)NC(=O)[C@H](CCCNC(=N)N)NC(=O)[C@@H](NC(=O)[C@H](CC(=O)O)NC(=O)[C@H](C)NC(=O)[C@H](Cc1ccc(O)cc1)NC(=O)[C@@H](NC(=O)[C@H](CCCNC(=N)N)NC(=O)[C@@H]1CCCN1C(=O)CNC(=O)[C@@H](NC(=O)[C@H](CCCNC(=N)N)NC(=O)[C@H](CCSC)NC(=O)[C@H](CC(N)=O)NC(=O)[C@H](CC(=O)O)NC(=O)[C@H](CC(C)C)NC(=O)[C@H](Cc1ccccc1)NC(=O)[C@@H](NC(=O)[C@H](CC(=O)O)NC(=O)[C@H](C)NC(=O)[C@H](CCSC)NC(=O)[C@H](CCC(=O)O)NC(=O)[C@H](CC(C)C)NC(=O)[C@H](C)NC(=O)[C@H](Cc1c[nH]c2ccccc12)NC(=O)[C@@H](N)CO)[C@@H](C)O)C(C)C)[C@@H](C)O)C(C)C)C(=O)N[C@@H](CC(N)=O)C(=O)N[C@@H](CCCCN)C(=O)N[C@@H](CCCNC(=N)N)C(=O)NCC(=O)N[C@@H](CCCNC(=N)N)C(=O)O` [ICP47_2–34]: the inhibition at 5 µM on TAP was above 85%. The “effect of illumination on TAP peptide binding blocked by inhibitor” value in test [1] was “not affected by illumination; also recorded: did not recover the TAP activity”.
